For orientation: IC50 means the midpoint of a concentration-inhibition curve. The term viability, T/C denotes the result in the treated group divided by that in the control group, in per cent.

Our source for the IC50 and viability, T/C values is PubChem BioAssay AID2060351 (Molecular Pharmacology Branch, DTP, NCI, 2025).

Each structure is given as a SMILES string.

The assay has as its system 521955-158-R7-J2-PDC spheroids, viability % test/control. The assay can be described thus: Anticancer human tumor 521955-158-R7-J2-PDC patient-derived pancreatic carcinoma cell line growth inhibition [TAK]. Particulars: spheroids with HUVEC and MSC; for viability, T/C: stronger effect = lower value. The text has this:
Combinatorial screen of targeted agents with TAK-243 and ipatasertib in multi-cell type tumor spheroids
A high-throughput screen of multi-cell type tumor spheroids was designed to identify active combinations of targeted small molecules and TAK-243 or ipatasertib. Complex spheroids include a stromal component modeled by human endothelial cells (HUVEC) and fibroblasts modeled by human mesenchymal stem cells (MSCs). The concentration ranges selected for each drug and investigational agent were based upon clinically achievable concentrations if the clinical Cmax of the agent was known.
Compounds. The drugs and investigational agents: TAK-243 (785004), ipatasertib (767898), everolimus (733504), selumetinib (741078), bortezomib (756655), trametinib (758246), ixazomib (758254), vemurafenib (761431), dabrafenib (764134), sapanisertib (764658), alpelisib (765974), and copanlisib (816437), were obtained from the National Cancer Institute (NCI) Developmental Therapeutics Program Chemical Repository. The FDA-approved anticancer drug set is available from the NCI Developmental Therapeutics Program. […] The stock solutions were prepared in dimethyl sulfoxide (DMSO, Sigma-Aldrich, St. Louis, MO, cat. D2650) at 800-fold the tested concentration and stored at -70 degrees C prior to their use. All drugs and investigational agents were tested over a range starting from a high concentration at or near the clinical Cmax and decreasing in half-log increments. If the clinical Cmax for an agent had not been determined, the highest concentration tested was 10 microM.
NCI60 Cell Culture. NCI60 cell lines were obtained from the NCI Developmental Therapeutics Program Tumor Repository. For each lot of cells, the Repository performed Applied Biosystems AmpFLSTR Identifiler testing with PCR amplification to confirm consistency with the published Identifier STR profile for each cell line. Cells were kept in continuous culture for no more than 20 passages. The optimal seeding densities for each of the cell lines at each time point assessed were determined prior to performing the concentration response studies. Briefly, the NCI60 human tumor lines were grown as monolayers in RPMI 1640 medium supplemented with 10% FBS and 2 mmol/L L-glutamine.
An additional 2 lines were from the NCI60 cell line panel including melanomas, MALME-3M and SK-MEL-2. Pooled donor human umbilical vein endothelial cells (HUVEC, Lonza, cat. CC-2519) and human mesenchymal stem cells (hMSC, Lonza, cat. PT-2501) were purchased from Lonza (Walkersville, MD).
PDMR cell lines were grown in complete medium (DC medium): Dulbecco's modified Eagle's medium (DMEM)/F12 supplemented with 5% fetal bovine serum (FBS), 2 mM L-glutamine, 100 U/mL penicillin and 100 µg/ml streptomycin, 0.4 µg/ml hydrocortisone, 10 ng/ml epidermal growth factor (EGF) recombinant human protein, 24 µg/mL adenine, and 0.1 mg/mL primocin. During culture from frozen stock vials, PDMR cells were cultured in the same medium containing 10 µM Y-27632 (see Table 3). The PDCs were cultured in complete DMEM/F12 media without 10 microM Y-27632 dihydrochloride for at least two passages prior to the screen. The pooled donor HUVEC and hMSC were cultured in endothelial cell growth medium 2 (PromoCell, Heidelberg, Germany, cat. C-22011) and mesenchymal stem cell growth medium 2 (PromoCell, cat. C-28009), respectively. For all experiments, HUVEC and hMSC were used at passages </=5.
For the pre-screen, cell seeding densities were determined from a titration spanning the range from 5,000 to 313 cells per well. The mct-spheroids including 60% malignant cells, 25% HUVEC and 15% MSC dispensed as a mixture into U-bottom Ultra-Low Attachment 384-well plates (Corning, NY)
High-throughput Drug Combination Screening.
Prior to their inoculation into 384-well plates, malignant cells, HUVEC, and hMSC were removed from T flasks using TrypLE express (Thermo Fisher Scientific, cat. 12605036) and harvested by centrifugation for 5 min at 233 x g. […]

Where [1] appears, read: curve of first compound, second compound 0.3 µM.
The mark [2] stands for this setting: curve of first compound, second compound 0.949 µM.
Where [3] appears, read: curve of first compound, second compound 3 µM.
Where [4] appears, read: curve of first compound, second compound 9.49 µM.
Setting [5] is: curve of first compound, second compound 30 µM.
Where [6] appears, read: second compound 0.3 µM, first compound 0.0316 µM.
Where [7] appears, read: second compound 0.3 µM, first compound 0.1 µM.
The mark [8] stands for this setting: second compound 0.949 µM, first compound 0.0316 µM.
The mark [9] stands for this setting: second compound 0.949 µM, first compound 0.1 µM.
Setting [10] is: second compound 3 µM, first compound 0.0316 µM.
[11] abbreviates: second compound 3 µM, first compound 0.1 µM.
The mark [12] stands for this setting: second compound 9.49 µM, first compound 0.0316 µM.
The mark [13] stands for this setting: second compound 9.49 µM, first compound 0.1 µM.
The mark [14] stands for this setting: second compound 30 µM, first compound 0.0316 µM.
Where [15] appears, read: second compound 30 µM, first compound 0.1 µM.
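Also: spheroids exposed to compound for 7 days before readout.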

As for `CC(C)(C)c1nc(-c2cccc(NS(=O)(=O)c3c(F)cccc3F)c2F)c(-c2ccnc(N)n2)s1` + CC(C)NCC(C(=O)N1CCN(c2ncnc3c2C(C)CC3O)CC1)c1ccc(Cl)cc1, the IC50 runs as follows: under setting [1], over 10000 nM; under setting [2], over 10000 nM; under setting [3], over 10000 nM; under setting [4], over 10000 nM; under setting [5], over 10000 nM. For the same compound, the viability, T/C under setting [6] is 111%; the viability, T/C under setting [7] was 94.3%; the viability, T/C (second compound 0.3 µM, first compound 0.316 µM) was 106%; the viability, T/C (second compound 0.3 µM, first compound 1 µM) is 131%; the viability, T/C (second compound 0.3 µM, first compound 3.16 µM) was 101%; the viability, T/C (second compound 0.3 µM, first compound 10 µM) is 74.2%. In addition, the viability, T/C by setting is: under setting [8], 89.3%; under setting [9], 102%; (second compound 0.949 µM, first compound 0.316 µM) 90.4%; (second compound 0.949 µM, first compound 1 µM) 103%; (second compound 0.949 µM, first compound 3.16 µM) 92.7%; (second compound 0.949 µM, first compound 10 µM) 60.3%. Besides, the viability, T/C under setting [10] is 95%; the viability, T/C under setting [11] was 115%; the viability, T/C (second compound 3 µM, first compound 0.316 µM) was 108%; the viability, T/C (second compound 3 µM, first compound 1 µM) is 130%; the viability, T/C (second compound 3 µM, first compound 3.16 µM) is 101%; the viability, T/C (second compound 3 µM, first compound 10 µM) is 71.5%. Also, the viability, T/C is 127% under setting [12]; 115% under setting [13]; 117% (second compound 9.49 µM, first compound 0.316 µM); 119% (second compound 9.49 µM, first compound 1 µM); 105% (second compound 9.49 µM, first compound 3.16 µM); 83.7% (second compound 9.49 µM, first compound 10 µM). Also, the viability, T/C reads like this: under setting [14], 111%; under setting [15], 130%; (second compound 30 µM, first compound 0.316 µM) 138%; (second compound 30 µM, first compound 1 µM) 136%; (second compound 30 µM, first compound 3.16 µM) 130%; (second compound 30 µM, first compound 10 µM) 97.2%.
As for `CC(C)CC(NC(=O)CNC(=O)c1cc(Cl)ccc1Cl)B1OC(=O)CC(CC(=O)O)(C(=O)O)O1` (configuration not stated) + CC(C)NCC(C(=O)N1CCN(c2ncnc3c2C(C)CC3O)CC1)c1ccc(Cl)cc1, the IC50 under setting [1] stood at 38.8 nM; the IC50 under setting [2] is 47.4 nM; the concentration for half-maximal inhibition (IC50) under setting [3] worked out at 42 nM; the IC50 under setting [4] was determined as 35 nM; the IC50 under setting [5] worked out at 33.3 nM. For the same compound, the viability, T/C runs as follows: (second compound 0.3 µM, first compound 0.000316 µM) 103%; (second compound 0.3 µM, first compound 0.001 µM) 71.9%; (second compound 0.3 µM, first compound 0.00316 µM) 96.8%; (second compound 0.3 µM, first compound 0.01 µM) 104%; under setting [6], 60.1%; under setting [7], 3.16%. The viability, T/C is, setting by setting: (second compound 0.949 µM, first compound 0.000316 µM) 119%; (second compound 0.949 µM, first compound 0.001 µM) 92.2%; (second compound 0.949 µM, first compound 0.00316 µM) 87.6%; (second compound 0.949 µM, first compound 0.01 µM) 103%; under setting [8], 74.7%; under setting [9], 4.69%. Also, the viability, T/C is 85.6% (second compound 3 µM, first compound 0.000316 µM); 90.8% (second compound 3 µM, first compound 0.001 µM); 109% (second compound 3 µM, first compound 0.00316 µM); 85.9% (second compound 3 µM, first compound 0.01 µM); 64.8% under setting [10]; 5.79% under setting [11]. Besides, the viability, T/C is, setting by setting: (second compound 9.49 µM, first compound 0.000316 µM) 116%; (second compound 9.49 µM, first compound 0.001 µM) 98.8%; (second compound 9.49 µM, first compound 0.00316 µM) 82.7%; (second compound 9.49 µM, first compound 0.01 µM) 86.4%; under setting [12], 58.1%; under setting [13], 4.1%. The viability, T/C reads like this: (second compound 30 µM, first compound 0.000316 µM) 95.1%; (second compound 30 µM, first compound 0.001 µM) 105%; (second compound 30 µM, first compound 0.00316 µM) 88.7%; (second compound 30 µM, first compound 0.01 µM) 80.9%; under setting [14], 52.4%; under setting [15], 2.42%.
For `CC(C)NCC(C(=O)N1CCN(c2ncnc3c2C(C)CC3O)CC1)c1ccc(Cl)cc1` (configuration not stated), the viability, T/C (compound 30 µM) was 84.2% [middle of 10 runs]. Also, the IC50 (compound alone, run of 02/20/2020) was over 30000 nM.
